ChEMBL document CHEMBL1201862, “PubChem BioAssay data set” (2004)
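Exposure lasted 48 hours, with cells grown in 96-well plates and compounds tested at five concentrations. GI50 marks 50% less growth.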 Calls of active or inactive are those of the source. No stated cut-off is given here; in the data, active = GI50 up to about 1.1 µM and inactive = higher.

Tests used:
Assay in all cases: NCI tumour cell line growth inhibition, 48 h
[1] = test system: ACHN
[2] = test system: Malme-3M
[3] = test system: OVCAR-4
[4] = test system: RXF 393
[5] = test system: SK-MEL-28
[6] = test system: MDA-MB-435
[7] = test system: SK-MEL-5
[8] = test system: IGROV-1
[9] = test system: OVCAR-8
[10] = test system: DU-145
[11] = test system: HCC 2998
[12] = test system: COLO 205
[13] = test system: HCT-116
[14] = test system: SK-OV-3
[15] = test system: NCI/ADR-RES
[16] = test system: SF-268
[17] = test system: M14
[18] = test system: HT-29
[19] = test system: T47D
[20] = test system: OVCAR-3
[21] = test system: SNB-19
[22] = test system: SF-295
[23] = test system: A549
[24] = test system: MDA-N
[25] = test system: SNB-75
[26] = test system: MCF7
[27] = test system: UO-31
[28] = test system: NCI-H23
[29] = test system: EKVX
[30] = test system: U-251
[31] = test system: MDA-MB-231
[32] = test system: SF-539
[33] = test system: MOLT-4
[34] = test system: SW-620
[35] = test system: K562
[36] = test system: SN12C
[37] = test system: CCRF-CEM
[38] = test system: HL-60
[39] = test system: OVCAR-5
[40] = test system: Hs-578T
[41] = test system: NCI-H522
[42] = test system: SR
[43] = test system: HOP-62
[44] = test system: A498
[45] = test system: SK-MEL-2
[46] = test system: LOX IMVI
[47] = test system: NCI-H226
[48] = test system: RPMI-8226
[49] = test system: CAKI-1
[50] = test system: UACC-62
[51] = test system: NCI-H460
[52] = test system: PC-3
[53] = test system: HCT-15
[54] = test system: TK-10
[55] = test system: 786-0
[56] = test system: UACC-257
[57] = test system: KM12
[58] = test system: HOP-92

C[N+](C)(N)c1nc(N)c(C#N)c(C#N)c1C#N
GI50 [1]: > 10 µM (inactive) | GI50 [2]: > 10 µM (inactive) | GI50 [3]: > 10 µM (inactive) | GI50 [4]: > 10 µM (inactive) | GI50 [5]: > 10 µM (inactive) | GI50 [6]: > 10 µM (inactive) | GI50 [7]: > 10 µM (inactive) | GI50 [8]: > 10 µM (inactive) | GI50 [9]: > 10 µM (inactive) | GI50 [10]: > 10 µM (inactive) | GI50 [11]: > 10 µM (inactive) | GI50 [12]: > 10 µM (inactive) | GI50 [13]: > 10 µM (inactive) | GI50 [14]: > 10 µM (inactive) | GI50 [15]: > 10 µM (inactive) | GI50 [16]: > 10 µM (inactive) | GI50 [17]: > 10 µM (inactive) | GI50 [18]: > 10 µM (inactive) | GI50 [19]: > 10 µM (inactive) | GI50 [20]: 1.91 µM (inactive) | GI50 [21]: > 10 µM (inactive) | GI50 [22]: > 10 µM (inactive) | GI50 [23]: > 10 µM (inactive) | GI50 [24]: > 10 µM (inactive) | GI50 [25]: > 10 µM (inactive) | GI50 [26]: > 10 µM (inactive) | GI50 [27]: > 10 µM (inactive) | GI50 [28]: > 10 µM (inactive) | GI50 [29]: > 10 µM (inactive) | GI50 [30]: > 10 µM (inactive) | GI50 [31]: > 10 µM (inactive) | GI50 [32]: > 10 µM (inactive) | GI50 [33]: > 10 µM (inactive) | GI50 [34]: > 10 µM (inactive) | GI50 [35]: 7.01 µM (inactive) | GI50 [36]: > 10 µM (inactive) | GI50 [37]: > 10 µM (inactive) | GI50 [38]: > 10 µM (inactive) | GI50 [39]: > 10 µM (inactive) | GI50 [40]: > 10 µM (inactive) | GI50 [41]: > 10 µM (inactive) | GI50 [42]: > 10 µM (inactive) | GI50 [43]: > 10 µM (inactive) | GI50 [44]: > 10 µM (inactive) | GI50 [45]: > 10 µM (inactive) | GI50 [46]: > 10 µM (inactive) | GI50 [47]: > 10 µM (inactive) | GI50 [48]: > 10 µM (inactive) | GI50 [49]: > 10 µM (inactive) | GI50 [50]: > 10 µM (inactive) | GI50 [51]: > 10 µM (inactive) | GI50 [52]: > 10 µM (inactive) | GI50 [53]: > 10 µM | GI50 [54]: > 10 µM (inactive)

Cc1cccc2c(N)c3cccc(C(=O)NCC[N+](C)(C)Cc4ccccc4[N+](=O)[O-])c3nc12
GI50 [55]: 4.22 µM (inactive) | GI50 [1]: 2.31 µM (inactive) | GI50 [2]: 6.76 µM (inactive) | GI50 [3]: 8.32 µM (inactive) | GI50 [4]: 9.64 µM (inactive) | GI50 [5]: 29.7 µM (inactive) | GI50 [6]: 21.1 µM (inactive) | GI50 [7]: 7.57 µM (inactive) | GI50 [8]: 5.78 µM (inactive) | GI50 [9]: 5.89 µM (inactive) | GI50 [10]: 8.69 µM (inactive) | GI50 [11]: 9.06 µM (inactive) | GI50 [12]: 9.02 µM (inactive) | GI50 [13]: 5.92 µM (inactive) | GI50 [14]: 12.6 µM (inactive) | GI50 [15]: 8.67 µM (inactive) | GI50 [16]: 5.12 µM (inactive) | GI50 [17]: 9.62 µM (inactive) | GI50 [18]: 5.22 µM (inactive) | GI50 [19]: 14.2 µM (inactive) | GI50 [20]: 18 µM (inactive) | GI50 [21]: 14.1 µM (inactive) | GI50 [22]: 6.32 µM (inactive) | GI50 [23]: 2.24 µM (inactive) | GI50 [24]: 16.9 µM (inactive) | GI50 [25]: 1.64 µM (inactive) | GI50 [26]: 4.35 µM (inactive) | GI50 [56]: 24.3 µM (inactive) | GI50 [27]: 13.4 µM (inactive) | GI50 [28]: 5.22 µM (inactive) | GI50 [29]: 31.5 µM (inactive) | GI50 [57]: 13.4 µM (inactive) | GI50 [30]: 5 µM (inactive) | GI50 [31]: 13.6 µM (inactive) | GI50 [32]: 7.94 µM (inactive) | GI50 [33]: 1.09 µM (active) | GI50 [34]: 7.6 µM (inactive) | GI50 [35]: 4.72 µM (inactive) | GI50 [36]: 2.11 µM (inactive) | GI50 [37]: 1.78 µM (inactive) | GI50 [39]: 13 µM (inactive) | GI50 [40]: 6.35 µM (inactive) | GI50 [41]: 4.94 µM (inactive) | GI50 [42]: 0.258 µM (active) | GI50 [43]: 7.48 µM (inactive) | GI50 [44]: 8.97 µM (inactive) | GI50 [45]: 25.8 µM (inactive) | GI50 [46]: 26.2 µM (inactive) | GI50 [47]: 3.94 µM (inactive) | GI50 [48]: 4.84 µM (inactive) | GI50 [49]: 5.71 µM (inactive) | GI50 [50]: 8.05 µM (inactive) | GI50 [58]: 10 µM (inactive) | GI50 [51]: 2.24 µM (inactive) | GI50 [52]: 7.14 µM (inactive) | GI50 [53]: > 20.3 µM | GI50 [54]: 6.62 µM (inactive)
